From ChEMBL document CHEMBL2034903, “Bis-spirolabdane diterpenoids from Leonotis nepetaefolia” (J Nat Prod, 2012)

Columns and labels:
[1] = target: T1, Muscarinic acetylcholine receptor M3 (Homo sapiens, UniProt P20309); assay: Displacement of [3H]QNB from human muscarinic M3 receptor at 10 uM
Target sequence in this assay (P20309 whole entry, looked up): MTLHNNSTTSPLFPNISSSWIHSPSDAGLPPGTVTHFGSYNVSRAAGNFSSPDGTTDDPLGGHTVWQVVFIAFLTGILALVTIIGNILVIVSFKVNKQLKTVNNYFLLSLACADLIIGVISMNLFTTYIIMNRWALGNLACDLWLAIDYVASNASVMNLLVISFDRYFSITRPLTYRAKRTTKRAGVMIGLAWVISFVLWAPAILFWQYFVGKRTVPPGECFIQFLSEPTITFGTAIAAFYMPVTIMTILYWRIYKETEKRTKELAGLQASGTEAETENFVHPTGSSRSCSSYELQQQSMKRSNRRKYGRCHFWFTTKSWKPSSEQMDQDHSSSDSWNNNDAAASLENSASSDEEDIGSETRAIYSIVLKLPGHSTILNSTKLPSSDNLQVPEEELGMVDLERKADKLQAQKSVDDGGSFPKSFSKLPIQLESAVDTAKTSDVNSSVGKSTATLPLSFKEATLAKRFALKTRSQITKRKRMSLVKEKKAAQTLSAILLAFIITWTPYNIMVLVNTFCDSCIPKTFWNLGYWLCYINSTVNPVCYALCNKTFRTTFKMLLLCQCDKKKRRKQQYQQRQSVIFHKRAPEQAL

Histamine H2 receptor [2] = target: T2, Histamine H2 receptor (Homo sapiens, UniProt P25021); assay: Binding affinity to human histamine H2 receptor
[3] = target: T1, Muscarinic acetylcholine receptor M3; assay: Binding affinity to human muscarinic M3 receptor
Target sequence in this assay (P20309 whole entry): as the sequence (P20309 whole entry, looked up) above

D(1B) dopamine receptor [4] = target: T3, D(1B) dopamine receptor (Homo sapiens, UniProt P21918); assay: Binding affinity to human dopamine D5 receptor
T3 sequence (P21918 whole entry): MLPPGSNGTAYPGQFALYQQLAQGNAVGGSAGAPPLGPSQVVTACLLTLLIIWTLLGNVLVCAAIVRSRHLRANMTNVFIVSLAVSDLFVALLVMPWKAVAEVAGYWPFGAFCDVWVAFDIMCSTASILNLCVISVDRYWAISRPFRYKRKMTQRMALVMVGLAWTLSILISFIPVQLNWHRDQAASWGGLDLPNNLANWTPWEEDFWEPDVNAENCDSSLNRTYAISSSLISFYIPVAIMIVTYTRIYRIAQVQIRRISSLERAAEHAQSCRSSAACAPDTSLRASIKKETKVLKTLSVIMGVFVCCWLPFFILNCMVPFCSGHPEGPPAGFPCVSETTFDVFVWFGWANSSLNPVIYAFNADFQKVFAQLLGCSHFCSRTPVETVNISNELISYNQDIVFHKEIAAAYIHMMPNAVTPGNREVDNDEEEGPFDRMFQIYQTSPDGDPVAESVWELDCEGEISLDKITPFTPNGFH

Histamine H2 receptor [5] = target: T2, Histamine H2 receptor; details: 10 uM
Description: Inhibition of human histamine H2 receptor at 10 uM

D(1B) dopamine receptor [6] = target: T3, D(1B) dopamine receptor; assay: Displacement of [3H]SCH23390 from human dopamine D5 receptor at 10 uM

T2 sequence (P25021 whole entry): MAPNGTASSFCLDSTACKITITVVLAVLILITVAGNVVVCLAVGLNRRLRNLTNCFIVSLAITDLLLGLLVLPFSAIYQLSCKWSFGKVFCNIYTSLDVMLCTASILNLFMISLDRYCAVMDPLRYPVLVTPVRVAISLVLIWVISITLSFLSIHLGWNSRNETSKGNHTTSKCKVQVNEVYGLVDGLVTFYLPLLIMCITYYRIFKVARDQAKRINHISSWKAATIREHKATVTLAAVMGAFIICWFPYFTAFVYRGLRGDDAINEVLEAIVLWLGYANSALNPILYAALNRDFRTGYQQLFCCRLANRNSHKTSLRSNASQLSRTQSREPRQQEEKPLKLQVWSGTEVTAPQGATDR

CO[C@H]1C[C@]2(CC[C@@]3(O2)[C@]2(CO2)C[C@@H](OC(C)=O)[C@@H]2[C@]34CCC[C@]2(C)C(=O)OC4)CO1
inhibition [1]: > 50%

C[C@@]12CCC[C@]3(C)C(=O)O[C@H](C[C@@]4(CO4)[C@]1(O)CCc1ccoc1)[C@H]23 [LEONOTININ]
Ki (Histamine H2 receptor [2]): > 10 µM
Ki [3]: > 10 µM
Ki (D(1B) dopamine receptor [4]): > 10 µM
inhibition (Histamine H2 receptor [5]): > 50%

C[C@@]12CCC[C@]3(C)C(=O)O[C@H](C[C@@]4(CO4)[C@]14CC[C@]1(COC(O)C1)O4)[C@H]23 (mixture of isomers)
inhibition [1]: > 50%
inhibition (D(1B) dopamine receptor [6]): > 50%
